Measurements from US20250344697A1, “ENANTIOMERICALLY ENRICHED […] THE CONTROL OF RESISTANT PHYTOPATHOGENIC FUNGI” (SYNGENTA CROP PROTECTION AG, priority 2022, published 2025).

Tests used:
Test in all cases: in vitro antifungal test, Z. tritici spore suspension in PDB
Type in all cases: cell-based
[1] = tested on: K5544 Zymoseptoria tritici (WT); settings: isolate K5544 (WT); for EC50 (ppm): growth at 3 days post exposure, average of two replicates; for M = (EC50 (enantiomer)/EC50 (racemate)) − 0.5: (−)-enantiomer vs racemate, below 0 = enantiomer outperforms racemate
Protocol: (§1) A panel of 16 Zymoseptoria tritici isolates was subjected to in vitro antifungal tests. Spore suspensions of Z. tritici isolates were prepared in potato dextrose broth (PDB) and exposed to defined concentration ranges of the inhibitors (20ppm starting concentration, dilution steps of 3). A sensitive wild-type isolate was used together with a panel of strains containing variants of the Z. tritici CYP51 gene conferring resistance to DMI fungicides. The DMI-resistant isolates were isolated from wheat in the UK, Ireland, Germany and Russia in 2020. Determination of CYP51 gene variants was achieved using targeted gene sequencing. The half maximal effective concentration (EC50) of the inhibitors were calculated based on growth responses of Z. tritici at 3 days post exposure to the different concentrations of the […] using a linear regression. The Tables A and B show an average of EC50 values in ppm from two replicates, as well as M=(EC50 (enantiomer)/EC50 (racemate))−0.5.

[2] = tested on: K9020 Zymoseptoria tritici CYP51 L50S V136A I381V Y461S S524T; settings: isolate K9020; for EC50 (ppm): growth at 3 days post exposure, average of two replicates; for M = (EC50 (enantiomer)/EC50 (racemate)) − 0.5: (−)-enantiomer vs racemate, below 0 = enantiomer outperforms racemate
Protocol: as §1

[3] = tested on: K9021 Zymoseptoria tritici CYP51 L50S V136A I381V Y461S S524T; settings: isolate K9021; for EC50 (ppm): growth at 3 days post exposure, average of two replicates; for M = (EC50 (enantiomer)/EC50 (racemate)) − 0.5: (−)-enantiomer vs racemate, below 0 = enantiomer outperforms racemate
Protocol: as §1

[4] = tested on: K9022 Zymoseptoria tritici CYP51 L50S V136A I381V Y461S S524T; settings: isolate K9022; for EC50 (ppm): growth at 3 days post exposure, average of two replicates; for M = (EC50 (enantiomer)/EC50 (racemate)) − 0.5: (−)-enantiomer vs racemate, below 0 = enantiomer outperforms racemate
Protocol: as §1

[5] = tested on: K9023 Zymoseptoria tritici CYP51 L50S V136C S188N A379G I381V YG459 S524T; settings: for EC50 (ppm): growth at 3 days post exposure, average of two replicates; for M = (EC50 (enantiomer)/EC50 (racemate)) − 0.5: (−)-enantiomer vs racemate
Protocol: as §1

[6] = tested on: K9026 Zymoseptoria tritici CYP51 L50S S188N A379G I381V YG459 N513K; settings: for EC50 (ppm): growth at 3 days post exposure, average of two replicates; for M = (EC50 (enantiomer)/EC50 (racemate)) − 0.5: (−)-enantiomer vs racemate
Protocol: as §1

[7] = tested on: K9029 Zymoseptoria tritici CYP51 L50S I381V YG459 N513K; settings: for EC50 (ppm): growth at 3 days post exposure, average of two replicates; for M = (EC50 (enantiomer)/EC50 (racemate)) − 0.5: (−)-enantiomer vs racemate; for effectiveness compared with the racemate (in words): isolate K9029, summary of Tables A and B
Protocol: as §1

[8] = tested on: K9032 Zymoseptoria tritici CYP51 L50S D134G V136A I381V Y461H S524T; settings: for EC50 (ppm): growth at 3 days post exposure, average of two replicates; for M = (EC50 (enantiomer)/EC50 (racemate)) − 0.5: (−)-enantiomer vs racemate
Protocol: as §1

| SMILES | EC50 (ppm) [1] [ppm] | EC50 (ppm) [2] [ppm] | EC50 (ppm) [3] [ppm] | EC50 (ppm) [4] [ppm] | EC50 (ppm) ([5]; isolate K9023, 2nd listed row) | EC50 (ppm) ([5]; isolate K9023, 3rd listed row) | EC50 (ppm) ([5]; isolate K9023) | EC50 (ppm) ([6]; isolate K9026, 1st listed row) | EC50 (ppm) ([6]; isolate K9026, 2nd listed row) | EC50 (ppm) ([6]; isolate K9026, 3rd listed row) | EC50 (ppm) ([7]; isolate K9029, 1st listed row) | EC50 (ppm) ([7]; isolate K9029, 2nd listed row) | EC50 (ppm) ([7]; isolate K9029, 3rd listed row) | EC50 (ppm) ([8]; isolate K9032, 1st listed row) | EC50 (ppm) ([8]; isolate K9032, 2nd listed row) | EC50 (ppm) ([8]; isolate K9032, 3rd listed row) | M = (EC50 (enantiomer)/EC50 (racemate)) − 0.5 [1] | M = (EC50 (enantiomer)/EC50 (racemate)) − 0.5 [2] | M = (EC50 (enantiomer)/EC50 (racemate)) − 0.5 [3] | M = (EC50 (enantiomer)/EC50 (racemate)) − 0.5 [4] | further results |
| --- | --- | --- | --- | --- | --- | --- | --- | --- | --- | --- | --- | --- | --- | --- | --- | --- | --- | --- | --- | --- | --- |
| COC(=O)C(O)(Cn1cncn1)c1ccc(Oc2ccc(Cl)cc2)cc1C(F)(F)F (racemic) [Racemate Compound I-2] | 0.03 | 0.03 | 0.09 | 0.7 | 0.1 | 0.3 | 0.3 | 6 | 0.07 | 0.07 | 0.8 | 3 | 10 | 0.2 | 0.1 | 0.1 |  |  |  |  |  |
| COC(=O)C(O)(Cn1cncn1)c1ccc(Oc2ccc(Cl)cc2)cc1Cl (single isomer, unassigned; (-)) [(−)-enantiomer of Compound I-1, (−)-Methyl 2-[2-chloro-4-(4-chlorophenoxy)phenyl]-2-hydroxy-3-(1,2,4-triazol-1-yl)propanoate] | 0.02 | 0.01 | 0.04 | 0.3 | 0.1 | 0.2 | 0.3 | 4 | 0.05 | 0.05 | 0.3 | 0.8 | 3 | 0.1 | 0.06 | 0.06 | 0.17 | −0.17 | −0.06 | 0.00 | effectiveness compared with the racemate (in words) ([2]; summary of Tables A and B): more effective; M = (EC50 (enantiomer)/EC50 (racemate)) − 0.5 ([5]; isolate K9023, 2nd listed row): 0.00; M = (EC50 (enantiomer)/EC50 (racemate)) − 0.5 ([5]; isolate K9023, 3rd listed row): 0.00; M = (EC50 (enantiomer)/EC50 (racemate)) − 0.5 ([5]; isolate K9023): 0.10; M = (EC50 (enantiomer)/EC50 (racemate)) − 0.5 ([6]; isolate K9026, 1st listed row): −0.10; M = (EC50 (enantiomer)/EC50 (racemate)) − 0.5 ([6]; isolate K9026, 2nd listed row): 0.00; M = (EC50 (enantiomer)/EC50 (racemate)) − 0.5 ([6]; isolate K9026, 3rd listed row): 0.00; effectiveness compared with the racemate (in words) ([6]; isolate K9026, summary of Tables A and B): more effective; M = (EC50 (enantiomer)/EC50 (racemate)) − 0.5 ([7]; isolate K9029, 1st listed row): −0.13; M = (EC50 (enantiomer)/EC50 (racemate)) − 0.5 ([7]; isolate K9029, 2nd listed row): −0.23; M = (EC50 (enantiomer)/EC50 (racemate)) − 0.5 ([7]; isolate K9029, 3rd listed row): −0.20; effectiveness compared with the racemate (in words) [7]: more effective; M = (EC50 (enantiomer)/EC50 (racemate)) − 0.5 ([8]; isolate K9032, 1st listed row): 0.00; M = (EC50 (enantiomer)/EC50 (racemate)) − 0.5 ([8]; isolate K9032, 2nd listed row): 0.10; M = (EC50 (enantiomer)/EC50 (racemate)) − 0.5 ([8]; isolate K9032, 3rd listed row): 0.10 |
| COC(=O)C(O)(Cn1cncn1)c1ccc(Oc2ccc(Cl)cc2)cc1C(F)(F)F (single isomer, unassigned; (+)) [(+)-enantiomer of Compound I-2] | 0.5 | 1 | 3 | >20 | 6 | 9 | 9 | >20 | 3 | 2 | >20 | >20 | >20 | 7 | 4 | 4 |  |  |  |  |  |
| COC(=O)C(O)(Cn1cncn1)c1ccc(Oc2ccc(Cl)cc2)cc1Cl (racemic) [Racemate Compound I-1] | 0.03 | 0.03 | 0.09 | 0.6 | 0.2 | 0.4 | 0.5 | 10 | 0.1 | 0.1 | 0.8 | 3 | 10 | 0.2 | 0.1 | 0.1 |  |  |  |  |  |
| COC(=O)C(O)(Cn1cncn1)c1ccc(Oc2ccc(Cl)cc2)cc1Cl (single isomer, unassigned; (+)) [(+)-enantiomer of Compound I-1, (+)Methyl 2-[2-chloro-4-(4-chlorophenoxy)phenyl]-2-hydroxy-3-(1,2,4-triazol-1-yl)propanoate] | 1 | 2 | 5 | 20 | 9 | 19 | 20 | 20 | 5 | 3 | 20 | 20 | 20 | 12 | 7 | 8 |  |  |  |  |  |
| COC(=O)C(O)(Cn1cncn1)c1ccc(Oc2ccc(Cl)cc2)cc1C(F)(F)F (single isomer, unassigned; (-)) [(−)-enantiomer of Compound I-2, (−)-Methyl 2-[4-(4-chlorophenoxy)-2-(trifluoromethyl)phenyl]-2-hydroxy-3-(1,2,4-triazol-1-yl)propanoate] | 0.03 | 0.02 | 0.05 | 0.4 | 0.1 | 0.2 | 0.3 | 3 | 0.05 | 0.04 | 0.5 | 1 | 5 | 0.1 | 0.07 | 0.08 | 0.50 | 0.17 | 0.06 | 0.07 | M = (EC50 (enantiomer)/EC50 (racemate)) − 0.5 ([5]; isolate K9023, 2nd listed row): 0.50; M = (EC50 (enantiomer)/EC50 (racemate)) − 0.5 ([5]; isolate K9023, 3rd listed row): 0.17; M = (EC50 (enantiomer)/EC50 (racemate)) − 0.5 ([5]; isolate K9023): 0.50; M = (EC50 (enantiomer)/EC50 (racemate)) − 0.5 ([6]; isolate K9026, 1st listed row): 0.00; M = (EC50 (enantiomer)/EC50 (racemate)) − 0.5 ([6]; isolate K9026, 2nd listed row): 0.21; M = (EC50 (enantiomer)/EC50 (racemate)) − 0.5 ([6]; isolate K9026, 3rd listed row): 0.07; M = (EC50 (enantiomer)/EC50 (racemate)) − 0.5 ([7]; isolate K9029, 1st listed row): 0.13; M = (EC50 (enantiomer)/EC50 (racemate)) − 0.5 ([7]; isolate K9029, 2nd listed row): −0.17; M = (EC50 (enantiomer)/EC50 (racemate)) − 0.5 ([7]; isolate K9029, 3rd listed row): 0.00; effectiveness compared with the racemate (in words) [7]: more effective; M = (EC50 (enantiomer)/EC50 (racemate)) − 0.5 ([8]; isolate K9032, 1st listed row): 0.00; M = (EC50 (enantiomer)/EC50 (racemate)) − 0.5 ([8]; isolate K9032, 2nd listed row): 0.20; M = (EC50 (enantiomer)/EC50 (racemate)) − 0.5 ([8]; isolate K9032, 3rd listed row): 0.30 |
